Data taken from article PMC10721329, “Quisinostat is a brain-penetrant radiosensitizer in glioblastoma” (JCI Insight, 2023).
Values joined by “and” are separate entries in the source; they are usually repeats but may differ in a detail not shown here. Equal entries are not always repeated. Where two headings read alike, the source gives them in different places.

Columns and labels:
[1] = Total and unbound QST in tumor and contralateral brain, short-term treatment, orthotopic GB126 PDX; format: in vivo
Description: To establish the PK-PD correlation and efficacy in an orthotopic patient-derived xenograft (PDX) model of GBM, we implanted GB126 cells in the brains of athymic nude mice and began treatment once the tumors started growing exponentially. Tumor-bearing mice were treated with QST (10 mg/kg), with or without IR, on a MWF schedule (Figure 7A). As described above, IR was delivered locally to the brain in 2-Gy fractions 2 hours after being dosed with vehicle solution or QST, for a cumulative delivery of 6 Gy. To assess acute PD effects and drug levels after short-term QST treatment (1 week, 3 doses total), 10 mice from each experimental cohort were sacrificed 3 hours after receiving the third dose of vehicle solution or QST (Figure 7A). Plasma, tumors, and brain tissue contralateral to the tumors were collected and processed for PK and PD analyses. […] To assess PD modulation, we homogenized brain tumors to obtain whole-tissue protein lysates from each mouse and quantified changes in histone H3 acetylation levels using immunoblotting.
QST concentrations in specimens were measured using reverse-phase LC on the AB SCIEX QTRAP6500+ LC-MS/MS system by operating electrospray in the positive ion mode. For liquid chromatographic separation, gradient elution was performed using a Phenomenex Kinetex F5 100 Å column (100 × 2.1 mm, 2.6 μm). The initial composition of the mobile phase was 70% phase A (0.1% formic acid in water) and 30% phase B (0.1% formic acid in 1:1 acetonitrile/methanol) with a 0.35 mL/min flow rate. […] The total run time was 3.5 minutes. The internal standard used in this study was D8-infigratinib. […] LC-MS/MS analysis was performed using an Analyst 1.7 Chromatographic Data System. See Supplemental Methods for detailed PK experiments.
Gy on MWF for a total of 6 Gy in the first week of treatment. Treatment groups included vehicle (50% PEG-3000), QST (10 mg/kg) alone, 6 Gy whole-brain IR treatment with vehicle, and 6 Gy whole-brain IR treatment with 10 mg/kg QST. QST was administered to mice through intraperitoneal injections two hours prior to whole-brain radiation treatment. […]
For short-term PK-PD correlation studies, tumor-bearing mice were randomized into groups and underwent a single week of treatment with QST (10 mg/kg) on MWF. For mice receiving IR treatment with or without QST, mice were treated with 2 Gy on MWF for a total of 6 Gy. QST was administered to mice through intraperitoneal injections 2 hours before whole-brain radiation treatment. On the third and last day of treatment, mice were sacrificed and processed for PD and PK analyses 3 hours after administration of QST or vehicle. For PD analyses, the mice were euthanized with isoflurane, and the tumors were dissected out of the brain and flash-frozen for subsequent analysis through Western blotting and RNA sequencing.
Tissue from the hemisphere contralateral to the tumor was also collected as a normal brain/nontumor reference sample. For PK analyses, the mice were anesthetized with isoflurane, and at least 300 μL of blood was drawn from the right ventricle of the heart. The blood was collected in tubes containing 10 μL of 0.1 M KOH in EDTA to prevent blood coagulation. Blood samples were immediately centrifuged at 3000 rpm for 10 minutes at 4 °C to allow separation of plasma. After collection of the blood, the tumor was dissected out of the brain and flash -frozen.

GB126 cells = test: γ-H2AX foci immunofluorescence; format: cell-based, human; conditions: 86 nM QST, value per individual nucleus, image series of replicate experiments
Description: (§1) To test the DNA-damaging effects of QST in GBM cells, we treated 2 independent GSC lines with QST for 72 hours at the IC50 and analyzed changes in the levels of phosphorylated histone H2AX (γ-H2AX), a marker for DNA double-strand breaks (DSBs) ([27]). […]
(§2) anti-GAPDH (1:1000, Cell Signaling Technologies, 97166), rabbit anti-cleaved poly (ADP-ribose) polymerase Asp 214 (1:1000, Cell Signaling, 9541), rabbit anti-BDNF (1:1000, Abcam, ab108319) and mouse anti- β-actin (1:1000, Bio-Rad, MCA5775GA). Membranes were probed with fluorophore-conjugated anti-mouse or anti-rabbit secondary antibodies (1:10,000; ThermoFisher Scientific). Western blots were developed using the LI-COR Odyssey CLx imaging system (LI-COR) and quantitated using the Image Studio Lite software. All Western blots are representative images from a minimum of 3 biological replicates.
(§3) Cells were grown as adherent cultures on laminin -coated glass coverslips (Thermo Fisher Scientific) in GSC media. Twenty-four hours after plating, the cells were treated with QST or DMSO diluted in GSC media. Seventy-two hours after treatment, cells were fixed with 4% paraformaldehyde for 13 minutes at room temperature. Cells were washed with phosphate-buffered saline (PBS) and subsequently permeabilized and blocked with 5% normal goat serum (Sigma Aldrich) and 0.2% Triton X -100 in PBS (blocking solution) for 30 minutes at room temperature. […]
(§4) SuperFrost Plus microscope slides using Fluoroshield Mounting Medium containing DAPI (Abcam). […] The fraction of Ki67- and Cleaved Caspase 3– positive cells were counted from 5 independent images from each condition. The mean and standard deviation were calculated from 3 biological replicates for all control and QST-treated […]
(§5) For cell cycle analysis following short -term DMSO or QST treatment in GSC cultures, approximately 1 million cells were harvested, washed in cold 1× PBS once, and fixed with 3–4 mL of ice cold 70% ethanol, added dropwise while vortexing. […] Data from all the samples were obtained using a Fortessa flow cytometer (BD Biosciences) and analyzed using the FlowJo software (TreeStar). […]

BT145 cells = test: γ-H2AX foci immunofluorescence; format: cell-based, human; conditions: BT 145, 75 nM QST, single nuclei
Description: as §1, §2, §3, §4, §5

[2] = acute treated tumors, individual mice

With `Cn1cc(CNCC2CCN(c3ncc(C(=O)NO)cn3)CC2)c2ccccc21` [QST, quisinostat] the “UNBOUND [QST], Brain” value ([1]; acute treated tumor-bearing mice, individual mice) was 1.55 nM and 0.424 nM and 0.84 nM and 2.425 nM and 1.0975 nM, the concentration at 3 h ([1]; acute treated tumor-bearing mice, individual mice, read-out: TOTAL [QST], brain) was 31 nM and 8.48 nM and 48.5 nM and 21.95 nM and the “TOTAL [QST], tumor” value [1, 2] was 634.32 nM and 1029.61 nM and 23.89 nM and 646.61 nM and 605.65 nM. For the same molecule, the “UNBOUND [QST], Tumor” value [1, 2] was 31.716 nM and 51.4805 nM and 1.1945 nM and 32.3305 nM and 30.2825 nM, the concentration at 3 h ([1]; athymic nude, mouse, brain tissue contralateral to the tumor, intraperitoneal, 10 mg/kg, acute treated tumor-bearing mice, mean, read-out: Total QST, brain, mean) was 25.4 nM and the concentration at 3 h ([1]; athymic nude, mouse, brain tissue contralateral to the tumor, intraperitoneal, 10 mg/kg, acute treated tumor-bearing mice, mean, read-out: Unbound QST, brain, mean) was 1.27 nM. For the same molecule, the concentration at 3 h ([1]; athymic nude, mouse, brain tumor (orthotopic GB126 xenograft), intraperitoneal, 10 mg/kg, acute treated tumors, mean, read-out: Total QST, tumor, mean) was 588 nM, the concentration at 3 h ([1]; athymic nude, mouse, brain tumor (orthotopic GB126 xenograft), intraperitoneal, 10 mg/kg, acute treated tumors, mean, read-out: Unbound QST, tumor, mean) was 29.4 nM and the concentration at 3 h ([1]; athymic nude, mouse, in vivo, 10 mg/kg, acute treated tumor-bearing mice, individual mice, read-out: TOTAL [QST], brain) was 16.8 nM. The “Number of foci/ Nucleus (γH2AX)” value (GB126 cells) was 12, the “Number of foci/ Nucleus (ƴH2AX)” value (BT145 cells) was 12 and the “ƴH2AX Number of foci/ Nucleus” value (BT145 cells; replicates n=1 to n=3) was 12.
